Results from PubChem BioAssay AID1963972 (Molecular Pharmacology Branch, DTP, NCI, 2024).

System: 945468-187-T-J2-PDC spheroids viability
Assay: Anticancer human tumor 945468-187-T-J2-PDC patient-derived rectal carcinoma cell line growth inhibition [PI3K]
Conditions: spheroids with HUVEC and MSC; for IC50: curve of first compound; for viability, T/C: stronger effect = lower value
In short: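 High-throughput combination screen: PI3K inhibitors crossed with targeted small molecules on complex spheroids of tumor cells, HUVEC and MSCs at 37 degrees C, 5% CO2. Top concentration was at or near clinical Cmax (otherwise 10 microM), with half-log decrements.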

[1] = second compound 0.00316 µM, first compound 0.0316 µM
[2] = second compound 0.00316 µM, first compound 0.1 µM
[3] = second compound 0.00316 µM, first compound 0.316 µM
[4] = second compound 0.00316 µM, first compound 1 µM
[5] = second compound 0.00316 µM, first compound 3.16 µM
[6] = second compound 0.00316 µM, first compound 10 µM
[7] = second compound 0.01 µM, first compound 0.0316 µM
[8] = second compound 0.01 µM, first compound 0.1 µM
[9] = second compound 0.01 µM, first compound 0.316 µM
[10] = second compound 0.01 µM, first compound 1 µM
[11] = second compound 0.01 µM, first compound 3.16 µM
[12] = second compound 0.01 µM, first compound 10 µM
[13] = second compound 0.0316 µM, first compound 0.0316 µM
[14] = second compound 0.0316 µM, first compound 0.1 µM
[15] = second compound 0.0316 µM, first compound 0.316 µM
[16] = second compound 0.0316 µM, first compound 1 µM
[17] = second compound 0.0316 µM, first compound 3.16 µM
[18] = second compound 0.0316 µM, first compound 10 µM
[19] = second compound 0.1 µM, first compound 0.0316 µM
[20] = second compound 0.1 µM, first compound 0.1 µM
[21] = second compound 0.1 µM, first compound 0.316 µM
[22] = second compound 0.1 µM, first compound 1 µM
[23] = second compound 0.1 µM, first compound 3.16 µM
[24] = second compound 0.1 µM, first compound 10 µM
[25] = second compound 0.316 µM, first compound 0.0316 µM
[26] = second compound 0.316 µM, first compound 0.1 µM
[27] = second compound 0.316 µM, first compound 0.316 µM
[28] = second compound 0.316 µM, first compound 1 µM
[29] = second compound 0.316 µM, first compound 3.16 µM
[30] = second compound 0.316 µM, first compound 10 µM
[31] = second compound 1 µM, first compound 0.0316 µM
[32] = second compound 1 µM, first compound 0.1 µM
[33] = second compound 1 µM, first compound 0.316 µM
[34] = second compound 1 µM, first compound 1 µM
[35] = second compound 1 µM, first compound 3.16 µM
[36] = second compound 1 µM, first compound 10 µM
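Further: spheroids exposed to compounds for seven days before reading.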

## C#Cc1c(F)ccc2cc(O)cc(-c3ncc4c(N5CC6CCC(C5)N6)nc(OCC56CCCN5CC(F)C6)nc4c3F)c12 (stereo unspecified) + CC(Nc1ccc2c(c1)OCCn1cc(N3C(=O)OCC3C(F)F)nc1-2)C(N)=O
Second compound 0.00316 µM
  IC50: > 10 µM
Second compound 0.01 µM
  IC50: > 10 µM
Second compound 0.0316 µM
  IC50: > 10 µM
Second compound 0.1 µM
  IC50: > 10 µM
Second compound 0.316 µM
  IC50: > 10 µM
Second compound 1 µM
  IC50: > 10 µM
[1]
  viability, T/C: 103%
[2]
  viability, T/C: 86.9%
[3]
  viability, T/C: 87.3%
[4]
  viability, T/C: 96.7%
[5]
  viability, T/C: 94%
[6]
  viability, T/C: 96.5%
[7]
  viability, T/C: 75.3%
[8]
  viability, T/C: 105%
[9]
  viability, T/C: 81.5%
[10]
  viability, T/C: 82.8%
[11]
  viability, T/C: 103%
[12]
  viability, T/C: 86.8%
[13]
  viability, T/C: 94.5%
[14]
  viability, T/C: 85.7%
[15]
  viability, T/C: 79.7%
[16]
  viability, T/C: 88.1%
[17]
  viability, T/C: 107%
[18]
  viability, T/C: 103%
[19]
  viability, T/C: 82.6%
[20]
  viability, T/C: 81.2%
[21]
  viability, T/C: 88.7%
[22]
  viability, T/C: 93.3%
[23]
  viability, T/C: 108%
[24]
  viability, T/C: 95.3%
[25]
  viability, T/C: 77%
[26]
  viability, T/C: 70.7%
[27]
  viability, T/C: 76.5%
[28]
  viability, T/C: 107%
[29]
  viability, T/C: 81.4%
[30]
  viability, T/C: 74.4%
[31]
  viability, T/C: 72%
[32]
  viability, T/C: 62.4%
[33]
  viability, T/C: 67.1%
[34]
  viability, T/C: 68.3%
[35]
  viability, T/C: 75.3%
[36]
  viability, T/C: 69.3%

## C=CC(=O)N1CCN(c2nc(=O)n(-c3c(C)ccnc3C(C)C)c3nc(-c4c(O)cccc4F)c(F)cc23)C(C)C1 (stereo unspecified) + CC(Nc1ccc2c(c1)OCCn1cc(N3C(=O)OCC3C(F)F)nc1-2)C(N)=O
Second compound 0.00316 µM
  IC50: > 10 µM
Second compound 0.01 µM
  IC50: > 10 µM
Second compound 0.0316 µM
  IC50: > 10 µM
Second compound 0.1 µM
  IC50: > 10 µM
Second compound 0.316 µM
  IC50: > 10 µM
Second compound 1 µM
  IC50: > 10 µM
[1]
  viability, T/C: 117%
[2]
  viability, T/C: 108%
[3]
  viability, T/C: 114%
[4]
  viability, T/C: 85.1%
[5]
  viability, T/C: 101%
[6]
  viability, T/C: 101%
[7]
  viability, T/C: 166%
[8]
  viability, T/C: 98%
[9]
  viability, T/C: 101%
[10]
  viability, T/C: 120%
[11]
  viability, T/C: 111%
[12]
  viability, T/C: 123%
[13]
  viability, T/C: 124%
[14]
  viability, T/C: 117%
[15]
  viability, T/C: 103%
[16]
  viability, T/C: 116%
[17]
  viability, T/C: 91.5%
[18]
  viability, T/C: 83.6%
[19]
  viability, T/C: 127%
[20]
  viability, T/C: 88.1%
[21]
  viability, T/C: 87.7%
[22]
  viability, T/C: 98.4%
[23]
  viability, T/C: 96.3%
[24]
  viability, T/C: 111%
[25]
  viability, T/C: 101%
[26]
  viability, T/C: 101%
[27]
  viability, T/C: 79.7%
[28]
  viability, T/C: 110%
[29]
  viability, T/C: 95.3%
[30]
  viability, T/C: 80.1%
[31]
  viability, T/C: 89.2%
[32]
  viability, T/C: 98.1%
[33]
  viability, T/C: 81.8%
[34]
  viability, T/C: 83.4%
[35]
  viability, T/C: 81.9%
[36]
  viability, T/C: 83.7%

## CC(Cn1ccc(-c2ccc(C#N)c(Cl)c2)n1)NC(=O)c1cc(C(C)O)[nH]n1 (stereo unspecified) + CC(Nc1ccc2c(c1)OCCn1cc(N3C(=O)OCC3C(F)F)nc1-2)C(N)=O
Second compound 0.00316 µM
  IC50: > 10 µM
Second compound 0.01 µM
  IC50: > 10 µM
Second compound 0.0316 µM
  IC50: > 10 µM
Second compound 0.1 µM
  IC50: > 10 µM
Second compound 0.316 µM
  IC50: > 10 µM
Second compound 1 µM
  IC50: > 10 µM
[1]
  viability, T/C: 98.9%
[2]
  viability, T/C: 105%
[3]
  viability, T/C: 107%
[4]
  viability, T/C: 75.7%
[5]
  viability, T/C: 106%
[6]
  viability, T/C: 110%
[7]
  viability, T/C: 108%
[8]
  viability, T/C: 85.8%
[9]
  viability, T/C: 90.5%
[10]
  viability, T/C: 96.2%
[11]
  viability, T/C: 111%
[12]
  viability, T/C: 93.6%
[13]
  viability, T/C: 100%
[14]
  viability, T/C: 82%
[15]
  viability, T/C: 88%
[16]
  viability, T/C: 92%
[17]
  viability, T/C: 91.1%
[18]
  viability, T/C: 103%
[19]
  viability, T/C: 86.2%
[20]
  viability, T/C: 82%
[21]
  viability, T/C: 99.1%
[22]
  viability, T/C: 80.8%
[23]
  viability, T/C: 101%
[24]
  viability, T/C: 81.7%
[25]
  viability, T/C: 85.2%
[26]
  viability, T/C: 73.2%
[27]
  viability, T/C: 95.2%
[28]
  viability, T/C: 91.4%
[29]
  viability, T/C: 82.7%
[30]
  viability, T/C: 82.8%
[31]
  viability, T/C: 76.2%
[32]
  viability, T/C: 74.8%
[33]
  viability, T/C: 68.9%
[34]
  viability, T/C: 63.6%
[35]
  viability, T/C: 72.3%
[36]
  viability, T/C: 71.4%
